In patent US20250073234A1, “COMBINATION THERAPIES INCLUDING PARP1 INHIBITORS” (Cornell University, priority 2022, published 2025):
“Also recorded” adds a separate entry of the source.

Assays:
[1] = test system: p62 (SQSTM1) in WPMY-1 cells; test: p62/SQSTM1 expression in WPMY-1 stromal fibroblasts (immunoblot, qPCR); format: cell-based, human
Text: To knock out PARP-1 in WPMY-1 cells, single-guide RNA sequences targeting PARP-1 exon2 were purchased from Synthego and transduced into WPMY-1 cells with recombinant Streptococcus pyogenes Cas9 protein (Truecut Cas9 Protein v2, Thermo), using the Neon Transfection System 1 (Invitrogen) following the manufacturer's protocol and single clones were expanded and screened by protein immunoblotting. To perform AP1-A binding site editing in the SQSTM promoter in WPMY-1 cells, single-guide RNA sequences targeting the human AP1-A binding site (Synthego) was transduced into cells with a Cas9 protein and a single-stranded donor oligonucleotide (ssODN, IDT) using Neon Electroporation System. Single clones were expanded and screened for AP1-A editing by Sanger sequencing. A point mutation to disrupt the API enhancer element in the p62 promoter was introduced by Site Directed Mutagenesis (Stratagene). Knockdown of MCT1, MCT4, FOS, PARP1, PARP2, CD38, ATG5, and SIRT1-7 genes in WPMY-1 cells were achieved by siRNA transfection using Lipofectamine RNAiMAX Transfection Reagent (Invitrogen). Transient overexpression was achieved by transfection using X-tremeGENE HP transfection reagent (Roche). Transfected cells were examined 48 hours after transfection. Establishing stably GFP or RFP expressing cells was achieved by lentivirus-mediated transduction. Lentivirus were produced in HEK293T cells using X-tremeGENE HP transfection reagent (Roche). Virus-containing supernatants were collected 48, 72 and 96 hours after transfection, filtered to eliminate cells, and supplemented with 8 μg/ml polybrene. Cells were infected with three rounds of viral supernatants and selected with puromycin (3 μg/ml). For autophagy or proteasome inhibition, WPMY-1 cells were treated for 12 hours with 100 nM bafilomycin Al or 12 hours with 20 μM of MG132, respectively, or vehicle (DMSO). […] For MCT1 inhibition, WPMY-1 cells were treated for 48 hours with 10 μM of AZD3965. For cJUN inhibition, WPMY-1 cells were treated for 48 hours with 10 μM of SP600125. For calpains and caspases inhibition, WPMY-1 cells were treated for 48 hours with 1-20 μM of Calpeptin (Tocris) or z-VAD-FMK (Tocris), respectively. For protein synthesis inhibition, WPMY-1 cells were treated with 50 μg/ml of cycloheximide (Sigma). Conditioned media (CM) was generated by collecting supernatant on day 3. CM was transferred to a 15 ml BD Falcon tube and centrifuged at 1300 rpm for 10 minutes. The supernatant was sterile filtered using a […] (Millex-GV) with a 10 ml syringe barrel. The samples were stored at […] for future experiments. Fractionation of the CM was achieved using Amicon Ultra centrifugal filters (3KUltracel, Millipore). The supernatant was centrifuged at 4000 rpm for 1 hour. The supernatant fraction that was >3 kDa remained above the filter and that which was <3 kDa passed through to the lower chamber. The >3-kDa fraction was resuspended in DMEM to the pre-filtration volume.

PC3 cells = test: Click-iT EdU proliferation of PC3 cells treated with CM from WPMY-1 cells; format: cell-based, human; conditions: Olaparib 10 μM + PEGPH20 2.5 μg/ml or CM incubation with Galunisertib 10 μM
Procedure: WPMY-1 cells were cultured in DMEN containing 10% FBS (basal conditions) or 10% charcoal stripped FBS (ADT conditions), then the cells were treated with vehicle (DMSO), Olaparib 10 μM, Olaparib 10 μM+PEGPH20 2.5 μg/ml for 96 hours, refreshing media and stimuli at 48 hours, conditioned media (CM) was generated by collecting supernatant on day 4. PC3 cells were seeded in a black-walled well (Thermo Fisher) and serum starved overnight. CM from WPMY-1 cells was added to PC3 for 24 h. PC3 were exposed to EdU incorporation for the last 2 hours. Proliferating cells were detected using Click-iT EdU Alexa fluor 488 (Thermo Fisher) following the manufacturer's instructions. Pictures were taken using EVOS M5000 Imaging System and EdU positive were measured using Fiji (Schindelin et al., 2012).

[2] = test system: human ovarian cancer PDXs; conditions: Niraparib vs vehicle, GSE163854
Text: (§1) For RNA-Seq, sequencing Fastq files were uploaded to BaseSpace and processed with RNASeq Alignment App (Illumina) to obtain raw reads counts for each gene. For 3′RNA-Seq, read data was processed with the BlueBee Genomics Platform (BlueBee, San Mateo, CA). GenePattern (https://genepattern.broadinstitute.org/gp/pages/index.jsf) was used to collapse gene matrix files (CollapseDataset module) or to assess the statistical significance of differential gene expression (ComparativeMarkerSelection module for microarray data and DESeq2 module for RNA-seq data). […] For ATACSeq, FASTQ files from ATAC-seq reads were aligned to UCSC mm10 with Bowtie2 (bowtie2-very-sensitive-x mm10-1 FILE_merged_R1.fastq-2 FILE_merged_R2.fastq-X 1000-p 12 | samtools view-u-| samtools sort->FILE.bam). […] For motif enrichment analysis in the differential peaks between vehicle and Olaparib-treated cells, p-values were calculated using findMotifsGenome.pl with—size given,—len 6,8,10,12 and—mask program of HOMER v4.10.3. […] For ATACSeq, FASTQ files from ATAC-seq reads were aligned to UCSC mm10 with Bowtie2 (bowtie2-very-sensitive-x mm10-1 FILE_merged_R1.fastq-2 FILE_merged_R2.fastq-X 1000-p 12 | samtools view-u-I samtools sort->FILE.bam). […] For scRNA-seq, raw sequence reads were quality-checked using FastQC software. […]

WPMY-1 cells = test: qPCR of CAF / stromal activation markers in WPMY-1 cells; format: cell-based, human; conditions: co-treatment with Olaparib
Text: To knock out PARP-1 in WPMY-1 cells, single-guide RNA sequences targeting PARP-1 exon2 were purchased from Synthego and transduced into WPMY-1 cells with recombinant Streptococcus pyogenes Cas9 protein (Truecut Cas9 Protein v2, Thermo), using the Neon Transfection System 1 (Invitrogen) following the manufacturer's protocol and single clones were expanded and screened by protein immunoblotting. To perform AP1-A binding site editing in the SQSTM promoter in WPMY-1 cells, single-guide RNA sequences targeting the human AP1-A binding site (Synthego) was transduced into cells with a Cas9 protein and a single-stranded donor oligonucleotide (ssODN, IDT) using Neon Electroporation System. Single clones were expanded and screened for AP1-A editing by Sanger sequencing. A point mutation to disrupt the API enhancer element in the p62 promoter was introduced by Site Directed Mutagenesis (Stratagene). Knockdown of MCT1, MCT4, FOS, PARP1, PARP2, CD38, ATG5, and SIRT1-7 genes in WPMY-1 cells were achieved by siRNA transfection using Lipofectamine RNAiMAX Transfection Reagent (Invitrogen). Transient overexpression was achieved by transfection using X-tremeGENE HP transfection reagent (Roche). Transfected cells were examined 48 hours after transfection. Establishing stably GFP or RFP expressing cells was achieved by lentivirus-mediated transduction. Lentivirus were produced in HEK293T cells using X-tremeGENE HP transfection reagent (Roche). Virus-containing supernatants were collected 48, 72 and 96 hours after transfection, filtered to eliminate cells, and supplemented with 8 μg/ml polybrene. Cells were infected with three rounds of viral supernatants and selected with puromycin (3 μg/ml). For autophagy or proteasome inhibition, WPMY-1 cells were treated for 12 hours with 100 nM bafilomycin Al or 12 hours with 20 μM of MG132, respectively, or vehicle (DMSO). For PARP1 inhibition, WPMY-1 cells were treated with PJ34 (2 days) or Olaparib (4 days) at the doses indicated in each experiment. For MCT1 inhibition, WPMY-1 cells were treated for 48 hours with 10 μM of AZD3965. For cJUN inhibition, WPMY-1 cells were treated for 48 hours with 10 μM of SP600125. For calpains and caspases inhibition, WPMY-1 cells were treated for 48 hours with 1-20 μM of Calpeptin (Tocris) or z-VAD-FMK (Tocris), respectively. For protein synthesis inhibition, WPMY-1 cells were treated with 50 μg/ml of cycloheximide (Sigma). Conditioned media (CM) was generated by collecting supernatant on day 3. CM was transferred to a 15 ml BD Falcon tube and centrifuged at 1300 rpm for 10 minutes. The supernatant was sterile filtered using a […] (Millex-GV) with a 10 ml syringe barrel. The samples were stored at […] for future experiments. Fractionation of the CM was achieved using Amicon Ultra centrifugal filters (3KUltracel, Millipore). The supernatant was centrifuged at 4000 rpm for 1 hour. The supernatant fraction that was >3 kDa remained above the filter and that which was <3 kDa passed through to the lower chamber. The >3-kDa fraction was resuspended in DMEM to the pre-filtration volume.
Total RNA from mouse tissues, cells and cultured organoids was extracted using the TRIZOL reagent (Invitrogen) and the RNeasy Mini Kit (QIAGEN), followed by DNase treatment. After quantification using a Nanodrop 1000 spectrophotometer (Thermo Scientific), RNA was either processed for RNA-seq or reverse-transcribed using random primers and MultiScribe Reverse Transcriptase (Applied Biosystems). Gene expression was analyzed by amplifying 20 ng of the complementary DNA using the CFX96 Real Time PCR Detection System with SYBR Green Master Mix (BioRad) and primers described in Table S1. The amplification parameters were set at 95° C. for 30 seconds, 58° C. for 30 seconds, and 72° C. for 30 seconds (40 cycles total). Gene expression values for each sample were normalized to the 18s RNA.

[3] = test system: BRCA deficient breast tumors; test: GSEA of RNAseq data of BRCA deficient breast tumors (GSE125206)
Text: as §1

## Cc1[nH]nc(C(F)(F)F)c1Cc1sc2c(c1C(=O)N1C[C@](C)(O)CO1)c(=O)n(C)c(=O)n2C(C)C [AZD3965]
[1]; WPMY-1 cells, MCT1 inhibitor 10 μM, PC3 CM 48 h
  p62 downregulation induced by CM from PC3 cells: impaired p62 downregulation in WPMY-1 cells treated with PC3 CM

## Cc1cccc(-c2nn3c(c2-c2ccnc4ccc(C(N)=O)cc24)CCC3)n1 [Galunisertib]
PC3 cells
  Olaparib-induced proliferation (EdU): completely abolished the stromal proliferation induced by Olaparib

## NC(=O)c1ccc[n+]([C@@H]2O[C@H](CO)[C@@H](O)[C@H]2O)c1 [NR, nicotinamide riboside]
[1]; lactate-treated WPMY-1 cells, 48 h, NAD 150 μM, NR 200 μM
  rescue of lactate-induced reduction in p62: completely rescued the lactate-induced reduction in p62

## NC(=O)c1cccc2cn(-c3ccc([C@@H]4CCCNC4)cc3)nc12 [Niraparib]
[2]
  GSEA inflammatory signaling signatures: increased inflammatory related signatures
  GSEA signatures of stromal activation: showing stromal activation

## CN(C)CC(=O)Nc1ccc2[nH]c(=O)c3ccccc3c2c1 [PJ34]
[1]; WPMY-1 cells, PJ34 24 h, Olaparib 48 h
  p62 expression (protein, SQSTM1 mRNA): reduced the expression of p62 in a dose-dependent manner

## CNC(=O)c1ccccc1Oc1nc(Nc2cc(OC)c(OC)c(OC)c2)ncc1Br [SBI-0202965]
WPMY-1 cells
  Olaparib-induced activation of stroma (qPCR of CAF marker ACTA2): reverted the Olaparib-induced activation of stroma in a dose dependent manner; also recorded: reverts the stroma activation induced by Olaparib

## Cn1ncnc1[C@H]1c2n[nH]c(=O)c3cc(F)cc(c23)N[C@@H]1c1ccc(F)cc1 [Talazoparib]
[3]; Talazoparib vs saline
  GSEA inflammatory signaling signatures: increased inflammatory related signatures
[3]; Talazoparib vs vehicle
  GSEA signatures of stromal activation: significant enrichment of signatures of stromal activation; also recorded: showing stromal activation
